Assay results taken from article PMC12416277, “Phytochemical alkaloids orchestrate immunometabolism against viral infections” (National Science Review, 2025).
pKd: −log10 of the molar value. Where two headings read alike, the source gives them in different places.

What was measured:
H1N1 [1] = assay: H1N1 mRNA in WT, TPCN1-/-, TPCN2-/- A549 cells or with nimodipine, qRT-PCR; format: cell-based, influenza virus A (H1N1)
H1N1 [2] = assay: In vivo H1N1 infection mouse model; design: species or system C57/BL6J mice; conditions: mice
NPC1/STING axis = assay: Ifit1 and Ifit2 mRNA in sgRNA-EV, sgRNA Npc1 and Flag-NPC1 cells stimulated with DMXAA and Tet; format: cell-based, mouse; conditions: sgRNA-EV vs NPC1-deficient vs Flag-NPC1 cells, DMXAA
Protocol: Figure 5. The dual functions of Tet to resist viral entry and activate antiviral immunity through the NPC1/STING axis. (a, b) Confocal analysis of Bio-Tet with CD63 (a) or NPC1 (b) in A549 cells, scale bar: 10 μm. (c) Binding affinity analysis of NPC1 with itraconazole, U18666A, or Tet was determined by SPR. (d, e) CETSA (d) and DARTS (e) analysis of NPC1 with Tet in HepG2 cells. (f) Streptavidin-covered beads with biotin, Bio-Tet, Bio-Tet + Tet were incubated with cell lysates. As indicated, the levels of NPC1 protein in bound proteins (IP) and total proteins (Input) were determined using immunoblotting. (g) Viral mRNA expression in siNPC1-transfected cells treated with Tet. (h) Viral mRNA expression in sgRNA-EV, sgRNA Npc1, and sgRNA Npc1 cells transfected with Flag-NPC1 treated with Tet. (i) Ifit1 and Ifit2 mRNA expression in sgRNA-EV, sgRNA Npc1, and sgRNA Npc1 cells transfected with Flag-NPC1 stimulated with DMXAA and Tet. (j) Schematic of LysoIP-DEG. (k) Immunoblotting analysis of the indicated proteins in LysoIP-DEG in Tet-treated HepG2 cells. (l) Schematic model of NPC1/STING axis-mediated viral inhibition by Tet. The schematic diagram (j) and model (l) were created by Figdraw. For a, b, g, h, i, n = 3 independent experiments. All data are presented as mean ± SD. P values were calculated using one-way ANOVA (g, h, i). NS, not significant. […]

NPC1 = target: T1, NPC1 (Homo sapiens, UniProt O15118); format: binding; conditions: read-out: SPR KD
T1 sequence (O15118 23-1278): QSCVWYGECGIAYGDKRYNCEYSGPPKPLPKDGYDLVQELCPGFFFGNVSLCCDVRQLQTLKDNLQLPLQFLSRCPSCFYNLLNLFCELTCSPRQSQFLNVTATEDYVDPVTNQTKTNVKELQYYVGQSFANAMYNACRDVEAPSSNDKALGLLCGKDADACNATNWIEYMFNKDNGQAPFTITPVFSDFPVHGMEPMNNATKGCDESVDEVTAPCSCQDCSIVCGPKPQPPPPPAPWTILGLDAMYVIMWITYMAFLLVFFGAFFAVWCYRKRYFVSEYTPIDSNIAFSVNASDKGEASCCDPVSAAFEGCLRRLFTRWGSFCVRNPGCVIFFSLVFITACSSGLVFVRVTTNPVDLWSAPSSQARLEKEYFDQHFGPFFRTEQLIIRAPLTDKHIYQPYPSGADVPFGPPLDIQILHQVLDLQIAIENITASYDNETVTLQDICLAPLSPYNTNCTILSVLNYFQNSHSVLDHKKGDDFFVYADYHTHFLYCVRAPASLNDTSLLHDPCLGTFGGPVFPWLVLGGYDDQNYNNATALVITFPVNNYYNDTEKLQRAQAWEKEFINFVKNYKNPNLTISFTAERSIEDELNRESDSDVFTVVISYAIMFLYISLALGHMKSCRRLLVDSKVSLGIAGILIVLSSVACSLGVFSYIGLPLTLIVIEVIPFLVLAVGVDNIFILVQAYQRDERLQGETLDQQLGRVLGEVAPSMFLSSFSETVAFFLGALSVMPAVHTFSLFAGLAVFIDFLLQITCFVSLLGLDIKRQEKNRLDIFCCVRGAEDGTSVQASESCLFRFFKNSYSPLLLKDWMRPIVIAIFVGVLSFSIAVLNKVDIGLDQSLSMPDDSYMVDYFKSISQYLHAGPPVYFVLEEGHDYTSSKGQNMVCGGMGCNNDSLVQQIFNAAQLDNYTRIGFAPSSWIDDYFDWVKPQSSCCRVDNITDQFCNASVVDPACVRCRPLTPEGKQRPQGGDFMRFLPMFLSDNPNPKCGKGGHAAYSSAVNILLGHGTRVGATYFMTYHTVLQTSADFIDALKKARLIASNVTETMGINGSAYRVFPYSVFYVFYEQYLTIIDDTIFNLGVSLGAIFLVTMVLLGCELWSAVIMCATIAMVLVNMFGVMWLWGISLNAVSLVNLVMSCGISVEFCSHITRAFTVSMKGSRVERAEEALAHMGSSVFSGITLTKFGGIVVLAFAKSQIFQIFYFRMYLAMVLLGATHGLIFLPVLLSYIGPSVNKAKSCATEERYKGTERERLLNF

A549 cells [3] = assay: Transcriptome analysis (RNA-seq, GO, GSEA) of compound-treated A549 cells; conditions: WT A549 cells, compared among Tet, Fan, Cep, Bbm
HSV-1 = format: cell-based, herpes simplex virus 1 (HSV-1)
[4] = test system: STING-dependent antiviral immune pathway; format: cell-based
VSV [5] = format: cell-based, vesicular stomatitis virus (VSV)
VSV [6] = format: cell-based, vesicular stomatitis virus (VSV); remark: listed apart in the source
A549 cells [7] = assay: Confocal analysis of filipin-stained cholesterol distribution in A549 cells; format: cell-based
VSV [8] = format: cell-based, vesicular stomatitis virus (VSV); remark: listed apart in the source
H1N1 [9] = assay: Viral attachment, entry and post-entry assay, H1N1 in A549 cells; format: cell-based, influenza virus A (H1N1)
[10] = H1N1, intranasal administration

In the case of `COc1ccc2cc1Oc1ccc(cc1)C[C@H]1c3cc(c(OC)cc3CCN1C)Oc1c(OC)c(OC)cc3c1[C@H](C2)N(C)CC3` [Tet, tetrandrine], the H1N1 replication (H1N1 [1]) was “suppressed”, the antiviral efficacy (H1N1 [1]; with nimodipine treatment) was “remained unchanged” and the “NP protein expression in lung tissue” value (H1N1 [2]; H1N1) was “inhibited”. The “alveolar damage and inflammatory infiltrations in lung tissues (H&E)” value (H1N1 [2]; H1N1) was “significantly alleviated”, the body weight recovery (H1N1 [2]; [10]) was “expedited body weight recovery” and the survival rates (H1N1 [2]; [10]) was “improved survival rates”. For the same compound, the “Ifit1 and Ifit2 expression” value (NPC1/STING axis) was “observed in sgRNA-EV cells, but this effect was abolished in NPC1-deficient cells and restored in sgRNA-Npc1 cells transfected with Flag-NPC1”, the pKd (NPC1) was 4.65 and the “expression of antiviral immune-related genes” value (A549 cells [3]) was “higher expression”. For the same compound, the “antiviral effect against HSV-1” value (HSV-1) was “markedly reduced”, the “IFNB1 and ISGs gene expression” value [4] was “significantly increased” and the “antiviral effect on VSV entry” value (VSV [5]; MβCD pretreatment (cholesterol depleted)) was “abolished”. The “antiviral effect on VSV entry” value (VSV [5]; cholesterol supplementation using MβCD-cholesterol) was “restored inhibition”, the “VSV replication (VSV-G protein, immunoblotting)” value (VSV [6]) was “inhibited” and the “cholesterol distribution / lysosomal cholesterol accumulation” value (A549 cells [7]) was “shifting it from the plasma membrane to endosomal and lysosomal compartments”. For the same compound, the “antiviral effect and boosted ISGs” value (VSV [8]) was “significantly attenuated”, the “H1N1 infection during entry or post-entry stages” value (H1N1 [9]) was “inhibited” and the H1N1 attachment (H1N1 [9]; 4°C) was “without affecting virus attachment”.
